Tests used:
2N5.1 [1] = test: 2N5.1 response to C14nef5 in the presence of rhesus PBMCs and its blocking by mAbs; type: cell-based, rhesus macaque; conditions: rhesus PBMCs derived from a positive donor
Procedure: The rhesus macaques (Macaca mulatta) used in this study were treated humanely in accordance with institutional regulations, and the experimental protocols were approved by the Committee for Experimental Use of Non-human Primates at the Institute for Virus Research and at the Primate Research Institute, Kyoto University. Rhesus macaque monocytes were isolated from PBMCs using MACS MicroBeads (Miltenyi Biotec, Bergisch Gladbach, Germany) conjugated with cross-reactive anti-human CD14 Abs. After immunizing BALB/c mice with these monocytes, spleen cells were obtained and fused with SP2/0 myeloma cells using the standard polyethylene glycol method. Culture supernatants of the hybridoma clones were tested at a dilution of 1:1 for their reactivity to rhesus macaque monocytes by flow cytometry and positive clones were subjected to T-cell assays to assess blocking activities.

[2] = system: 2N5.1 (plate-coated Mamu-B*098); test: T-cell assay with plate-coated Mamu-B*098, IFN-γ release by 2N5.1; type: cell-based, rhesus macaque; conditions: 10 μg MHC protein, 1 μg lipopeptide loaded overnight 37 °C; 5 × 10^4 T cells per well, 24 h; IFN-γ ELISA
Source text: (§1) Single-chain MHC proteins in which β2m was linked via a Gly-Ser linker (GGGGSGGSGSGGGSS) to the ectodomain of either Mamu-B*098 or Mamu-A*02, followed by a biotinylation sequence peptide (LHHILDAQKMVWNHR), were also expressed in E. coli and were purified in a similar manner to the trimer complex of Mamu-B*098, β2m and C14nef5. The β2m-linked Mamu-B*098 protein was refolded without C14nef5, whereas the β2m-linked Mamu-A*02 protein was refolded in the presence of the YY9 peptide (YTSGPGIRY). These recombinant proteins (3 mg) were biotinylated by being incubated for 12 h at 20 °C with 2 μg of BirA enzyme (Sigma-Aldrich, St Louis, MO) in a biotinylation buffer containing 100 mM Tris-HCl pH 8.0, 5 mM MgCl2, 4.5 mM ATP and 4 mM D-biotin, and were purified by size-exclusion chromatography.
Streptavidin-coated 96-well plates (Thermo Scientific, Hudson, NH) were overlaid with 10 μg of the biotinylated β2m-linked Mamu-B*098 and Mamu-A*02 proteins, and lipopeptide Ags (1 μg) were loaded by an overnight incubation at 37 °C. The wells were then washed extensively and T cells (5 × 10^4 per well) were added. After a 24-h incubation at 37 °C, aliquots of the culture supernatants were collected and the amount of IFN-γ released into the medium was measured by a human/monkey IFN-γ enzyme-linked immunosorbent assay kit (Mabtech, Nacka Strand, Sweden).

2N5.1 [3] = conditions: cited from earlier work
Source text: For example, human and simian immunodeficiency viruses (HIV and SIV) borrow host-derived N-myristoyltransferase and its substrate myristoyl-CoA, to couple a 14-carbon saturated fatty acid (myristic acid) to the N-terminal glycine residue of the Nef protein. […] To obtain an insight into its molecular identity, we generated several hundred monoclonal antibodies that recognized rhesus PBMCs and tested their abilities to block the presentation of C14nef5 to 2N5.1. […] The myristoyl group of the lipopeptide adopted a U-shaped configuration and fit perfectly with the extended B pocket. Furthermore, inter- and intramolecular VDW forces established throughout the acyl chain synergistically reinforced its stable binding to the B pocket. These structural f ... || (+ 1 further places)

Mamu-A*02 = test: Biolayer interferometry binding to β2m-linked Mamu-A*02; set-up: species or system rhesus macaque; conditions: Octet RED96; biotinylated β2m-linked Mamu-A*02 (refolded with YY9), negative control; lipopeptide 10 μM, 45 min; pH 7.5, 2% DMSO; 30 °C
Source text: as §1
The binding of ligands to MHC class I molecules was analysed using the Octet RED96 system equipped with a streptavidin-conjugated biosensor (Pall ForteBio, Menlo Park, CA) according to the manufacturer's instructions. Biotinylated β2m-linked Mamu-B*098 and Mamu-A*02 proteins were immobilized on the sensor tip surface with a signal magnitude of ∼5.0 nm. […] After reference subtraction, binding signals were analysed using the BIAevaluation 3.1 software. […]

[4] = system: 2N5.1 (Mamu-B*098 Cys167 to Ser mutant); test: Presentation of C14nef5 to 2N5.1 by the cysteine to serine (position 167) mutant of Mamu-B*098; type: cell-based, rhesus macaque; conditions: data not shown

## C14-Gly-Gly-Ala-Ile-Ser [C14nef5, N-myristoylated 5-mer peptide (C14-Gly-Gly-Ala-Ile-Ser; C14nef5) derived from the SIV Nef protein]
2N5.1 [1]
  2N5.1 response (IFN-γ production) in the presence of rhesus PBMCs: responded to C14nef5
[2]
  IFN-γ response of 2N5.1 to plate-coated Mamu-B*098 with lipopeptide Ag: sufficient for stimulating 2N5.1 to produce IFN-γ
2N5.1 [3]
  antigenic activity, C14nef5 versus its Ser to Thr mutant: virtually identical antigenic activities
  recognition by rhesus macaque CD8+ CTL line 2N5.1: specifically recognizes
2N5.1 [3]; irradiated PBMCs
  requirement of PBMCs for recognition by 2N5.1: requires the presence of irradiated peripheral blood mononuclear cells (PBMCs)
Mamu-A*02
  physical interaction with immobilized Mamu-A*02 (biolayer interferometry): not for the control protein Mamu-A*02
[4]
  effect of Cys167 to Ser mutation on ability of Mamu-B*098 to present C14nef5 to 2N5.1: affected neither the overall secondary structure nor the ability of Mamu-B*098 to present C14nef5 to 2N5.1

From publication PMC4735555, “Crystal structure of the N-myristoylated lipopeptide-bound MHC class I complex” (Nature Communications, 2016)
